Experimental data taken from US4434175A, “Nonsteroidal compounds as anti-inflammatory and analgesic agents” (Merck & Co., Inc., priority 1982, dated 1984).

Experiments:
[1] = system: edema induced by carragenin in rat's right hind paw; assay: rat foot edema assay (carragenin-induced, C.F.E.); type: in vivo, rat (male, Sprague Dawley)
Description: The rat foot edema assay, by which anti-inflammatory activity is determined, is based on the ability of the compounds of Formula I to inhibit the edema induced by injection of an inflammatory (phlogistic) agent into the tissue of a rat's foot. Groups of six male rats (Sprague Dawley strain, 150±30 g each) are given orally the compounds to be tested one hour before 0.1 ml of 1% suspension of carragenin in methocel (0.5%) is injected into the plantar surface of the rat's right hind paw. Immediately and again three hours later, the foot volume is measured and recorded. The difference between the […] and final volumes is a measurement of the edema produced. For comparative purposes the activity of the compound to be tested is measured against that produced by the known anti-inflammatory agent, e.g. Zomepirac. The activity measured is also corrected by the swelling, if any, produced by the "control" rats which receive only the methocel solution.

gastric mucosa = assay: Gastric Hemorrhage Lesion Formation Assay (GHLF) / gastric irritation; type: in vivo, rat (Sprague-Dawley, male); conditions: for Ave. No. of lesions per Animal / Animal with Lesion: oral, fasted, 4 h; for Animal with Lesion: animals with at least one lesion/group
Description: In other words, the novel compounds of the present invention are less toxic in terms of gastric irritation. The GHLF test is conducted according to the following procedure:
Rats (Sprague-Dawley, Males, 120-180 gm) were fasted overnight and dosed orally with drug suspended in 0.5% methylcellulose. The drug concentration was adjusted so that each animal received 1.0 ml/100 gm body weight. Four hours later the animals were killed by asphixiation in carbon dioxide, the stomachs removed, cut open and everted. The mucosal lining was washed and examined under 3X magnification. The lesions are indentified as perforations of the gastric mucosa many of which perforate right through the wall of the stomach.
The results are expressed in two ways, the average number of lesions per stomach, and the number of animals in the group showing at least one lesion.

[2] = Rattus norvegicus, oral, one hour before carragenin, foot volume 3 h later

| Structure (SMILES) | inhibition in vivo at 3 mg/kg [1, 2] [%] | Ave. No. of lesions per Animal (gastric mucosa; 10 mg/kg) | Animal with Lesion (gastric mucosa; 10 mg/kg) | Ave. No. of lesions per Animal (gastric mucosa; 30 mg/kg) | Animal with Lesion (gastric mucosa; 30 mg/kg) | inhibition in vivo at 10 mg/kg [1, 2] [%] | inhibition in vivo at 30 mg/kg [1, 2] [%] | Ave. No. of lesions per Animal (gastric mucosa; 90 mg/kg) | Animal with Lesion (gastric mucosa; 90 mg/kg) | further results |
| --- | --- | --- | --- | --- | --- | --- | --- | --- | --- | --- |
| C=C(Cl)COc1cc(CC(=O)O)n(C)c1C(=O)c1ccc(Cl)cc1 [4-ClC6 H5; drawing 13; CH3] | 30 | – | – | – | – | – | – | – | – | inhibition in vivo at 20 mg/kg [1, 2]: 32% |
| CSc1ccc(C(=O)c2c(C)cc(CC(=O)O)n2C)n1C [drawing 24] | – | 0 | 0/6 | 0 | 0/6 | – | – | – | – | Ave. No. of lesions per Animal (gastric mucosa; 60 mg/kg): 1.5; Animal with Lesion (gastric mucosa; 60 mg/kg): 4/6 |
| CSc1cc(C(=O)c2c(C)cc(CC(=O)O)n2C)n(C)c1 | – | – | – | – | – | 33 | 53 | – | – | – |
| COc1cc(CC(=O)O)n(C)c1C(=O)c1ccc(C)cc1 [4-CH3C6 H5; OCH3; CH3, 5-(p-methylbenzoyl)-4-methoxy-1-methylpyrrole-2-acetic acid] | – | 0 | 0/6 | 0 | 0/6 | – | – | 0 | 0/6 | inhibition in vivo at 5 mg/kg ([1]; Rattus norvegicus, 5 mg/kg, oral, one hour before carragenin, foot volume 3 h later): 38%; inhibition in vivo at 20 mg/kg [1, 2]: 38% |
| COc1cc(CC(=O)O)n(C)c1C(=O)c1ccc(F)cc1F [2,4-F2C6 H5; OCH3; CH3, 5-(o-p-difluorobenzoyl)-4-methoxy-1-methylpyrrole-2-acetic acid] | 29 | – | – | – | – | 35 | 38 | – | – | – |
| Cc1cc(CC(=O)O)n(C)c1C(=O)c1ccc(Cl)cc1 [Zomepirac, reference compound] | – | – | – | – | – | – | – | – | – | Ave. No. of lesions per Animal (gastric mucosa; 3 mg/kg): 0.5; Animal with Lesion (gastric mucosa; 3 mg/kg): 4/6; Ave. No. of lesions per Animal (gastric mucosa; 6 mg/kg): 1.4; Animal with Lesion (gastric mucosa; 6 mg/kg): 3/6; Ave. No. of lesions per Animal (gastric mucosa; 9 mg/kg): 1.4; Animal with Lesion (gastric mucosa; 9 mg/kg): 6/6 |
| Cc1cc(CC(=O)O)n(C)c1C(=O)c1cccnc1 [drawing 23] | – | – | – | – | – | – | – | 0 | 0/6 | – |
| COc1cc(CC(=O)O)n(C)c1C(=O)c1ccc(C(F)(F)F)cc1 [4-CF3C6 H5; OCH3; CH3, 5-(p-trifluoromethylbenzoyl)-4-methoxy-1-methylpyrrole-2-acetic acid] | 24 | 0 | 0/6 | 0 | 0/6 | 48 | – | 0 | 0/6 | inhibition in vivo at 20 mg/kg [1, 2]: 57%; Ave. No. of lesions per Animal (gastric mucosa; 150 mg/kg): 1; Animal with Lesion (gastric mucosa; 150 mg/kg): 1/6 |
| COc1cc(CC(=O)O)n(C)c1C(=O)c1ccc(SC)cc1 [4-CH3 SC6 H5; CH3 O; CH3, 5-(p-methylthiobenzoyl)-4-methoxy-1-methylpyrrole-2-acetic acid] | 45 | 0.5 | 3/6 | 0.8 | 2/6 | – | – | – | – | inhibition in vivo at 15 mg/kg ([1]; Rattus norvegicus, 15 mg/kg, oral, one hour before carragenin, foot volume 3 h later): 64% |
| CSc1ccc(C(=O)c2c(C)cc(CC(=O)O)n2C)n1C [drawing 18] | – | – | – | – | – | 34 | 45 | – | – | – |
| COc1cc(CC(=O)O)n(C)c1C(=O)c1ccc(Cl)cc1 [4-ClC6 H5; CH3 O; CH3, 5-(p-chlorobenzoyl)-4-methoxy-1-methylpyrrole-2-acetic acid] | 48 | 0 | 0/5 | 0 | 0/5 | 51 | 70 | 2 | 3/5 | inhibition in vivo at 20 mg/kg [1, 2]: 60% |
| Cc1cc(CC(=O)O)n(C)c1C(=O)c1cccn1C | – | – | – | – | – | – | 26 | – | – | – |
| Cc1cc(CC(=O)O)n(C)c1C(=O)c1ccc(Cl)n1C | – | – | – | – | – | 30 | 41 | – | – | – |
| CCOc1cc(CC(=O)O)n(C)c1C(=O)c1ccc(Cl)cc1 [4-ClC6 H5; OC2 H5; CH3, 4-ethoxy-5-(p-chlorobenzoyl)-1-methylpyrrole-2-acetic acid] | – | – | – | – | – | – | – | – | – | inhibition in vivo at 20 mg/kg [1, 2]: 33% |
| Cc1cc(CC(=O)O)n(C)c1C(=O)c1cccnc1 [drawing 19] | 34 | – | – | – | – | 47 | 33 | – | – | – |
| Cc1cc(CC(=O)O)n(C)c1C(=O)c1ccccn1 | – | – | – | – | – | – | – | 0 | 0/6 | – |
| COc1cc(CC(=O)O)n(C)c1C(=O)c1ccc(Cl)n1C | 30 | – | – | – | – | 35 | 41 | – | – | – |
| COc1cc(CC(=O)O)n(C)c1C(=O)c1ccc([S+](C)[O-])cc1 (stereo not shown) [4-CH3 SOC6 H5; CH3 O; CH3, 4-methoxy-5-(p-methylsulfinylbenzoyl)-1-methylpyrrole-2-acetic acid] | – | – | – | – | – | 29 | 23 | – | – | – |
| CSc1ccc(C(=O)c2c(C)cc(CC(=O)OCCNC(C)=O)n2C)n1C [Acetamidoethyl 1,4-dimethyl-5-(1-methyl-5-methylthiopyrrol-2-oyl)pyrrole-2-acetate] | – | 0 | 0/6 | 0 | 0/6 | 13 | 21 | 0.5 | 2/6 | activity in rat foot edema assay ([1]; footnote to edema table): also active; activity, footnote to GHLF table (gastric mucosa; footnote to GHLF table): also active |
